Experimental data from patent US10183912B2, “HDMX inhibitors and their use for cancer treatment” (priority 2014, dated 2019).
Like-named read-outs stand apart in the source and are kept apart here. Each block holds one compound with its values, some of them ahead of it.

What was measured:
HDMX [1] = target: T1, HDMX (Homo sapiens, UniProt O15151); assay: Surface plasmon resonance binding to immobilized recombinant HDMX; conditions: doses up to 12.5 μM
T1 sequence (O15151 1-490): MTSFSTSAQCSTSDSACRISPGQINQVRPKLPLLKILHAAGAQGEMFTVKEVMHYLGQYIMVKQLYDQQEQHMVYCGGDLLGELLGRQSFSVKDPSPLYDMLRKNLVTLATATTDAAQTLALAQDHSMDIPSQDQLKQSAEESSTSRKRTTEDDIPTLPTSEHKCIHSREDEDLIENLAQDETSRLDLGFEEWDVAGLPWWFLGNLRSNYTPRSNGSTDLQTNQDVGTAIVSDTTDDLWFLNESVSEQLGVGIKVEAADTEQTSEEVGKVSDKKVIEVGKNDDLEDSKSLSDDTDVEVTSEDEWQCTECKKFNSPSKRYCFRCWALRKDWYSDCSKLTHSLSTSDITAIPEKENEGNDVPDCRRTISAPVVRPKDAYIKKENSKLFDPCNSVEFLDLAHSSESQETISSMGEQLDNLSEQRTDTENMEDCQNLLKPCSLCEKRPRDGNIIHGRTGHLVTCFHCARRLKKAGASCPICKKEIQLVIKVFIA

HDMX [2] = target: T1, HDMX; assay: Spectral (absorbance) studies after size exclusion chromatography with HDMX; assay type: binding; conditions: absorbance pattern after removal of free compound
GST-HDMX = target: T2, GST-HDMX (Homo sapiens, UniProt O15151); conditions: immunoprecipitation / streptavidin pull-down
T2 sequence (O15151 1-490): T1 sequence (O15151 1-490)

[3] = test system: HCT116 p53-wild-type cells; assay: Cell cycle analysis by PI staining, HCT116 p53-wild-type cells; assay type: cell-based; conditions: after 24 hr of treatment with CTX1 (2 μM); decrease from 20%
HCT116 p53-null cells [4] = assay: Cell cycle analysis by PI staining, HCT116 p53-null cells; assay type: cell-based; conditions: after 24 hr of treatment with CTX1 (2 μM); reduction from 25%
primary human AML cells = assay: Survival of NSG mice injected with primary human AML cells; assay type: in vivo
HDM2/p53 = HDM2/p53 (Homo sapiens, UniProt Q00987); assay: ELISA of recombinant HDM2/p53 interaction; assay type: biochemical
IMR90 cells = assay: Cell death (trypan blue) in IMR90 fibroblast model with HDMX, HDM2 or shp53; assay type: cell-based; conditions: 72 hr
GST-FXR = assay type: binding; conditions: immunoprecipitation / streptavidin pull-down
[5] = test system: HCT116 p53-wild type cells; assay: Annexin-V staining for apoptosis, HCT116 p53-wild type cells; assay type: cell-based; conditions: combination of CTX1 (3 μM) and nutlin-3 (5 μM), 72 hr
HCT116 p53-null cells [6] = assay: Annexin-V staining for apoptosis, HCT116 p53-null cells; assay type: cell-based; conditions: combination of CTX1 (3 μM) and nutlin-3 (5 μM), 72 hr
MCF7 cells = conditions: CTX1 3 μM
OCI cell line = assay: IC50 / cell killing activity on OCI cell line; assay type: cell-based
HDMX/p53 = target: T3, HDMX/p53 (Homo sapiens, UniProt O15151); assay: ELISA of recombinant HDMX/p53 interaction; assay type: biochemical
T3 sequence (O15151 1-490): T1 sequence (O15151 1-490)

P53-HDMX = target: T4, P53-HDMX (Homo sapiens, UniProt O15151); assay: Co-immunoprecipitation of P53 and HDMX; assay type: biochemical; conditions: compared to DMSO and Nutlin
T4 sequence (O15151 1-490): T1 sequence (O15151 1-490)

[7] = test system: OCI-AML3 (OCI) cells overexpressing HDMX; assay: Cell killing of OCI cells overexpressing HDMX versus parental cells; assay type: cell-based; conditions: 72 hr trypan blue

Chain of HDM2/p53 (Q00987 whole entry): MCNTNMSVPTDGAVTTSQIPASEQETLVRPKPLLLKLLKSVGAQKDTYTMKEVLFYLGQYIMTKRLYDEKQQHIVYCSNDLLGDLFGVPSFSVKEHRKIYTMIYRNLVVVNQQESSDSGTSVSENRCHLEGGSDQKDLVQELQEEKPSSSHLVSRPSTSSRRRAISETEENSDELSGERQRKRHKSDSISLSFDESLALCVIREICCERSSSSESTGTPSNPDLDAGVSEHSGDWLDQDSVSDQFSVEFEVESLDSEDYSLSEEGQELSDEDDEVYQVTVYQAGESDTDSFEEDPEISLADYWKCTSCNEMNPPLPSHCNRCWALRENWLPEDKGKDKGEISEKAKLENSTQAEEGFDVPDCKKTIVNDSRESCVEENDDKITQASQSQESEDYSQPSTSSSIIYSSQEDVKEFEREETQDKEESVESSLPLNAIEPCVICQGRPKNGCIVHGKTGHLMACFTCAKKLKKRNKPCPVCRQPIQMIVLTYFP

binding to HDMX using SPR (HDMX [1]): did not demonstrate any binding
binding to HDMX by spectral studies (HDMX [2]): not observed
SMILES: Nc1c2ccccc2nc2ccccc12 [9-AA, 9-aminoacridine]

SMILES: O=C(O)CCCC[C@@H]1SC[C@@H]2NC(=O)N[C@@H]21 [Biotin]
direct interaction with GST-HDMX (GST-HDMX): not to bind with HDMX

SMILES: N#Cc1c2ccc(N)cc2nc2cc(N)ccc12 [CTX1]
S phase [3]: 4%
S phase (HCT116 p53-null cells [4]): 15%
survival time (primary human AML cells; CTX1 (30 mg/kg i.p.) in combination with nutlin-3 (200 mg/kg p.o.)): significantly increased survival time
survival of mice (primary human AML cells; single agent, 30 mg/kg i.p.): significantly enhanced the survival
disruption of HDM2/p53 interaction (HDM2/p53): not HDM2/p53
cell death (IMR90 cells; HDMX-expressing cells (Vector or HDMX), 1, 2.5 and 5 μM): induced significant p53-dependent cell death
cell death (IMR90 cells; cells with HDM2 overexpression or p53 knocked down by shRNA): not cells in which p53 is inactivated by HDM2 overexpression
direct interaction with GST-FXR (GST-FXR): not unrelated proteins such as GST-FXR
induction of apoptosis [5]: synergistic induction of apoptosis
induction of apoptosis (HCT116 p53-null cells [6]): not p53-null cells
p53 induction (MCF7 cells): induces p53 rapidly

SMILES: O=[N+]([O-])c1ccc2c(Cl)c3ccc([N+](=O)[O-])cc3nc2c1 [INVA3Z-1-1]
IC50 (OCI cell line): 13.5 µM

SMILES: Nc1ccc(Nc2c3ccccc3nc3ccccc23)cc1 [INVA3Z-5-2]
IC50 (OCI cell line; OCI cell line, read-out: IC 50): 4.7 µM

SMILES: N#Cc1c2ccc([N+](=O)[O-])cc2nc2cc([N+](=O)[O-])ccc12 [INVA3Z-6-1]
IC50 (OCI cell line): 14.1 µM

SMILES: N#Cc1c2ccccc2nc2ccccc12 [INVA3Z-6-3]
IC50 (OCI cell line; OCI cell line, read-out: IC 50): 13.4 µM

SMILES: O=S(=O)(CCCOCc1ccccc1)Nc1ccc(Nc2c3ccccc3nc3ccccc23)cc1 [INVA3Z-10-1]
IC50 (OCI cell line; OCI cell line, read-out: IC 50): 9.8 µM

SMILES: [N-]=[N+]=NCCCS(=O)(=O)Nc1ccc(Nc2c3ccccc3nc3ccccc23)cc1 [INVA3Z-13-1]
IC50 (OCI cell line; OCI cell line, read-out: IC 50): 9.9 µM

SMILES: O=C(CCl)Nc1c2ccccc2nc2ccccc12 [INVA3Z-17-2]
IC50 (OCI cell line; OCI cell line, read-out: IC 50): 13.6 µM

SMILES: OCCNc1ccc(Nc2c3ccccc3nc3ccccc23)cc1 [INVA3Z-19-1]
IC50 (OCI cell line; OCI cell line, read-out: IC 50): 5.8 µM

SMILES: O=[N+]([O-])c1ccc2c(Cl)c3ccccc3nc2c1 [INVA3Z-28-1]
IC50 (OCI cell line; OCI cell line, read-out: IC 50): 7.8 µM

SMILES: ClCCN(CCCl)c1c2ccccc2nc2ccccc12 [INVA3Z-29-1]
IC50 (OCI cell line): > 8 µM

SMILES: N#Cc1ccc(Nc2c3ccccc3nc3ccccc23)cc1 [INVA3Z-29-2]
IC50 (OCI cell line; OCI cell line, read-out: IC 50): > 8 µM

SMILES: O=C(CCCCC1SCC2NC(=O)NC21)Nc1ccc(Nc2c3ccccc3nc3ccccc23)cc1 (centres unmarked) [INVA3Z-31-1]
IC50 (OCI cell line; read-out: IC 50): 11.9 µM

SMILES: Nc1ccc(Nc2c3ccccc3nc3cc([N+](=O)[O-])ccc23)cc1 [INVA3Z-32-1]
IC50 (OCI cell line; OCI cell line, read-out: IC 50): 4.8 µM

SMILES: Nc1ccc(Nc2c3ccccc3nc3cc(N)ccc23)cc1 [INVA3Z-32-2]
IC50 (OCI cell line; OCI cell line, read-out: IC 50): 4.7 µM

SMILES: CC(=O)Nc1ccc(Nc2c3ccccc3nc3ccccc23)cc1 [INVA3Z-36-1]
IC50 (OCI cell line; OCI cell line, read-out: IC 50): 4.9 µM

SMILES: Nc1cccc(Nc2c3ccccc3nc3ccccc23)c1 [INVA3Z-38-1]
IC50 (OCI cell line; OCI cell line, read-out: IC 50): 11.8 µM

SMILES: CC(=O)Nc1cccc(Nc2c3ccccc3nc3ccccc23)c1 [INVA3Z-39-1]
IC50 (OCI cell line; OCI cell line, read-out: IC 50): 12.1 µM

SMILES: CC(=O)Nc1ccc2c(Cl)c3ccccc3nc2c1 [INVA3Z-40-1]
IC50 (OCI cell line; OCI cell line, read-out: IC 50): 13.2 µM

SMILES: CC(=O)Nc1ccc2c(Nc3ccc(N)cc3)c3ccccc3nc2c1 [INVA3Z-40-2]
IC50 (OCI cell line; OCI cell line, read-out: IC 50): 13.9 µM

SMILES: [O-][n+]1c2ccccc2c(Cl)c2ccccc21 [INVA3Z-41-1]
IC50 (OCI cell line; OCI cell line, read-out: IC 50): > 15 µM

SMILES: Nc1ccc(Nc2c3ccccc3[n+]([O-])c3ccccc23)cc1 [INVA3Z-41-2]
IC50 (OCI cell line; OCI cell line, read-out: IC 50): 14.3 µM

SMILES: Nc1ccc(Nc2c3ccc([N+](=O)[O-])cc3nc3cc([N+](=O)[O-])ccc23)cc1 [INVA3Z-42-1]
IC50 (OCI cell line; read-out: IC 50): 0.13 µM

SMILES: Nc1ccc2cc3ccc(N)c(I)c3nc2c1 [INVA3Z-46-2]
IC50 (OCI cell line; OCI cell line, read-out: IC 50): 7.9 µM

SMILES: O=C(CCCCC1SCC2NC(=O)NC21)Nc1ccc(Nc2c3ccc([N+](=O)[O-])cc3nc3cc([N+](=O)[O-])ccc23)cc1 (centres unmarked) [INVA3Z-48-2]
IC50 (OCI cell line): 8.2 µM

SMILES: CC(=O)Nc1ccc(Nc2c3ccc([N+](=O)[O-])cc3nc3cc([N+](=O)[O-])ccc23)cc1 [INVA3Z-50-2]
IC50 (OCI cell line): 1.4 µM
disruption of HDMX/p53 interaction (HDMX/p53): Identical results were obtained
disruption of HDM2/p53 interaction (HDM2/p53): Identical results were obtained
disruption of P53-HDMX protein interaction (P53-HDMX): disrupts

SMILES: Nc1ccc2cc3ccc(N)c(-c4ccccc4)c3nc2c1-c1ccccc1 [INVA3Z-52-2]
IC50 (OCI cell line; OCI cell line, read-out: IC 50): 3.4 µM

SMILES: Nc1ccc2cc3ccc(N)c(-c4ccccc4)c3nc2c1I [INVA3Z-52-3]
IC50 (OCI cell line; OCI cell line, read-out: IC 50): 7.8 µM

SMILES: [N-]=[N+]=Nc1c2ccccc2nc2ccccc12 [INVA3Z-55-1]
IC50 (OCI cell line; OCI cell line, read-out: IC 50): 3.2 µM

SMILES: O=[N+]([O-])c1ccc2c(Cl)c3cc([N+](=O)[O-])ccc3nc2c1 [INVA3Z-58-1]
IC50 (OCI cell line): > 15 µM

SMILES: Nc1ccc(Nc2c3ccccc3nc3ccccc23)c(N)c1 [INVA3Z-61-2]
IC50 (OCI cell line; OCI cell line, read-out: IC 50): 4.3 µM

SMILES: Cc1c([N+](=O)[O-])ccc2c(Cl)c3ccc([N+](=O)[O-])cc3nc12 [INVA3Z-63-1]
IC50 (OCI cell line): > 15 µM

SMILES: Cc1c([N+](=O)[O-])ccc2c(Nc3ccc(N)cc3)c3ccc([N+](=O)[O-])cc3nc12 [INVA3Z-63-2]
IC50 (OCI cell line): > 15 µM

SMILES: Cc1ccc2nc3cc([N+](=O)[O-])ccc3c(Nc3ccc(N)cc3)c2c1[N+](=O)[O-] [INVA3Z-65-2]
IC50 (OCI cell line): 11.5 µM

SMILES: Nc1ccc(Nc2c3ccc([N+](=O)[O-])cc3nc3cc([N+](=O)[O-])ccc23)cc1N [INVA3Z-66-1]
IC50 (OCI cell line): > 15 µM

SMILES: Nc1ccn([C@@H]2O[C@H](CO)[C@@H](O)[C@@H]2O)c(=O)n1 [cytarabine, reference compound]
efficacy in this model system (primary human AML cells; standard AML therapeutic): does not demonstrate efficacy

SMILES: COc1ccc(C2=N[C@@H](c3ccc(Cl)cc3)[C@@H](c3ccc(Cl)cc3)N2C(=O)N2CCNC(=O)C2)c(OC(C)C)c1 [nutlin-3]
sensitivity to cell killing versus parental cells [7]: reduced activity
